Measured values from patent publication US6908919B2, “Substituted polycyclic aryl and heteroaryl pyrazinones useful for selective inhibition of the coagulation cascade” (Pharmacia Corporation, priority 1999, dated 2005).
Read-outs that look alike come from different tables or passages of the source.

What was measured:
[1] = target: T1, recombinant soluble tissue factor and recombinant human factor VIIa (TF-VIIa) (Homo sapiens, UniProt P08709); test: TF-VIIa Assay; type: biochemical
T1 construct: conversion of coagulation factor VII to VIIa by Xa; purchased American Diagnostica, Greenwich Conn; host or cells: VIIa purchased; soluble TF made in house in E. coli

[2] = target: Human factor Xa (Homo sapiens, UniProt P00742); test: Xa Assay; type: biochemical; set-up: purchased Enzyme Research Laboratories, South Bend Ind
Human factor Xa, sequence (P00742 41-179 limits assumed): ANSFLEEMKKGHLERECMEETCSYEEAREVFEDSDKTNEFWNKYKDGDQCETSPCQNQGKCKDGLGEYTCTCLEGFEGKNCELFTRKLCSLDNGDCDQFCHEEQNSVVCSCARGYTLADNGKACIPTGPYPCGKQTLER
Human factor Xa, sequence (P00742 235-488 limits assumed): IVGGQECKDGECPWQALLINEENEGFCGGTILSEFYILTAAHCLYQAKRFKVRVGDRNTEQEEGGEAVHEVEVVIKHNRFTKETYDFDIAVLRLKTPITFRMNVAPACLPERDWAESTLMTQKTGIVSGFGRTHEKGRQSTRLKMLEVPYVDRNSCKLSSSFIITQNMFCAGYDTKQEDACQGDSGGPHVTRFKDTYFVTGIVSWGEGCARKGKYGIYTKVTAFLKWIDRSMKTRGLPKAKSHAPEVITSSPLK

T1 sequence (P08709 61-212 limits assumed): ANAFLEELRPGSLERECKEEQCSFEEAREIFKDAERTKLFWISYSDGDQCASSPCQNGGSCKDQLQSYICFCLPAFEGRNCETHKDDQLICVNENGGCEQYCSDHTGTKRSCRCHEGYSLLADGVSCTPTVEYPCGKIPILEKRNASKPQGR
T1 sequence (P08709 213-466 limits assumed): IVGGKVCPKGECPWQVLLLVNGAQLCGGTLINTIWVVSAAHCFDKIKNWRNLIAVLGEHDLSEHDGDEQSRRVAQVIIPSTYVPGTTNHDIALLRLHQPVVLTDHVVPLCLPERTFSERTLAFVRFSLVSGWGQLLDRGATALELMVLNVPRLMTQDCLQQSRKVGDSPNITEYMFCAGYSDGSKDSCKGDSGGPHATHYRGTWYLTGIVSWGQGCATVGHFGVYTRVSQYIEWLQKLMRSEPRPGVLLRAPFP
T1 sequence (P13726 33-251 partner limits assumed): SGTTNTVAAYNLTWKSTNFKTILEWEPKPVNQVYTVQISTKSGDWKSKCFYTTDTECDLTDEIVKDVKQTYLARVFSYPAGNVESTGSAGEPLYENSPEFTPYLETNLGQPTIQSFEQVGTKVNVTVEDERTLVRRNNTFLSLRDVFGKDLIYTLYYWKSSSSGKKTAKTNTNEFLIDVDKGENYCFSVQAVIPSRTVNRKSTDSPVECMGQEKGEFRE

| Structure (SMILES) | % Inhibition TF-VIIa (100 µM) ([1]; inhibitor at 100 µM) [%] | % Inhibition Factor Xa (100 µM) ([2]; inhibitor at 100 µM) [%] | also measured |
| --- | --- | --- | --- |
| COc1ccc(-c2c(Cl)nc(NCCc3ccncc3)c(=O)n2CC(=O)NCCc2ccncc2)cc1 [Example E-0038] | 0 | 0 |  |
| N=C(N)c1ccc(CNC(=O)Cn2c(-c3ccc(-c4ccccc4)cc3)c(Cl)nc(NCc3ccncc3)c2=O)cc1 [1471-67] |  |  | % Inhibition TF-VIIa (30 µM) ([1]; at 30 µM inhibitor): 12%; % Inhibition Factor Xa (30 µM) ([2]; at 30 µM inhibitor): 16% |
| O=C(Cn1c(-c2ccc(-c3ccccc3)cc2)c(Cl)nc(NCCc2ccccc2)c1=O)NCCc1ccncc1 [Example E-0112] |  |  | % Inhibition TF-VIIa (100 µM) [1]: 11%; % Inhibition Factor Xa (100 µM) [2]: 1% |
| N=C(N)c1ccc(CNC(=O)Cn2c(-c3ccc4c(c3)OCO4)c(Cl)nc(NCCN3CCOCC3)c2=O)cc1 [1471-44] |  |  | % Inhibition TF-VIIa (30 µM) ([1]; at 30 µM inhibitor): 34%; % Inhibition Factor Xa (30 µM) ([2]; at 30 µM inhibitor): 13% |
| O=C(Cn1c(-c2ccc(-c3ccccc3)cc2)c(Cl)nc(NCCc2ccccc2)c1=O)NCCc1ccncc1 [Example E-0050] |  |  | % Inhibition TF-VIIa (100 µM) [1]: 0%; % Inhibition Factor Xa (100 µM) [2]: 0% |
| CC(CC(=O)O)Nc1nc(Cl)c(-c2cccc(N)c2)n(CC(=O)NCc2ccc(C(=N)N)cc2)c1=O (stereo not shown) [Example 130] |  |  | IC50 ([1]; read-out: IC50 TF-VIIa, cell printed 'at 100 μM' without %, cell adds 'at 100 μM'): 0.18 µM; % Inhibition Factor Xa at 100 μM ([2]; at 100 μM inhibitor): 24% at 100 μM |
| CC(C)Nc1nc(Cl)c(-c2cc(N)cc(C(=O)NCc3ccc(Cl)cc3Cl)c2)n(CC(=O)NCc2ccc(C(=N)N)cc2)c1=O [Example 128-5] |  |  | IC50 ([1]; read-out: IC50 TF-VIIa): 0.0847 µM; % Inhibition Factor Xa at 100 μM ([2]; at 100 μM inhibitor): 43% at 100 μM |
| O=C(Cn1c(CCc2ccccc2)c(Cl)nc(NCCc2cccnc2)c1=O)NCCc1ccncc1 [Example E-0069] | 0 | 0 |  |
| O=C(Cn1c(-c2ccc3c(c2)OCO3)c(Cl)nc(NCCc2cccnc2)c1=O)NCCc1ccncc1 [Example E-0045] | 0 | 0 |  |
| O=C(Cn1c(-c2ccc(Cl)cc2)c(Cl)nc(NCc2ccncc2)c1=O)NCCc1ccncc1 [Example E-0032] | 0 | 0 |  |
| O=C(Cn1c(Cc2ccccc2)c(Cl)nc(NCCc2cccnc2)c1=O)NCCc1ccncc1 [Example E-0061] | 0 | 0 |  |
| N=C(N)c1ccc(CNC(=O)Cn2c(-c3ccc(-c4ccccc4)cc3)c(Cl)nc(NCCc3cccc(Cl)c3)c2=O)cc1 [1471-70] |  |  | % Inhibition TF-VIIa (30 µM) ([1]; at 30 µM inhibitor): 10%; % Inhibition Factor Xa (30 µM) ([2]; at 30 µM inhibitor): 12% |
| COC(=O)c1cc(N)cc(-c2c(Cl)nc(NC(C)C)c(=O)n2CC(=O)NCc2ccc(C(=N)N)cc2)c1 [Example 125] |  |  | IC50 ([1]; read-out: IC50 TF-VIIa): 0.038 µM; inhibition at 100 µM ([2]; at 100 μM inhibitor): 36% |
| O=C(Cn1c(CCc2ccccc2)c(Cl)nc(NCCc2ccncc2)c1=O)NCCc1ccncc1 [Example E-0070] | 0 | 0 |  |
| Cc1c(Cl)nc(NCCN2CCOCC2)c(=O)n1CC(=O)NCCc1ccncc1 [Example E-0007] | 0 | 0 |  |
| O=C(Cn1c(-c2ccc(-c3ccccc3)cc2)c(Cl)nc(NCCc2ccc(Cl)cc2)c1=O)NCCc1ccncc1 [Example E-0118] |  |  | % Inhibition TF-VIIa (100 µM) [1]: 12%; % Inhibition Factor Xa (100 µM) [2]: 3% |
| O=C(Cn1c(-c2ccc3c(c2)OCO3)c(Cl)nc(NCc2ccncc2)c1=O)NCCc1ccncc1 [Example E-0048] | 0 | 0 |  |
| N=C(N)c1ccc(CNC(=O)C(Cc2ccccc2)n2c(-c3ccccc3)c(Cl)nc(NCCc3cccc(Cl)c3)c2=O)cc1 (stereo not shown) [Example 1517-20] |  |  | % Inhibition TF-VIIa (30 µM) ([1]; at 30 µM): 22%; % Inhibition Factor Xa (30 µM) ([2]; at 30 µM): 0% |
| CCc1c(Cl)nc(NCCc2cccc(Cl)c2)c(=O)n1CC(=O)NCc1ccc(C(=N)N)cc1 [1471-62] |  |  | % Inhibition TF-VIIa (30 µM) ([1]; at 30 µM inhibitor): 4%; % Inhibition Factor Xa (30 µM) ([2]; at 30 µM inhibitor): 0% |
| CC(=O)Nc1cccc(-c2c(Cl)nc(NC(C)C)c(=O)n2CC(=O)NCCc2ccc(C(=N)N)cc2)c1 [Example 68] |  |  | % Inhibition TF-VIIa (30 µM) ([1]; at 30 µM inhibitor): 32%; % Inhibition Factor Xa (30 µM) ([2]; at 30 µM inhibitor): 6% |
| O=C(Cn1c(Cc2ccccc2)c(Cl)nc(NCCc2ccc(Cl)cc2)c1=O)NCCc1ccncc1 [Example E-0060] | 0 | 0 |  |
| O=C(Cn1c(-c2ccc3c(c2)OCO3)c(Cl)nc(NCCc2ccncc2)c1=O)NCCc1ccncc1 [Example E-0046] | 0 | 0 |  |
| O=C(Cn1c(-c2ccc(-c3ccccc3)cc2)c(Cl)nc(NCc2ccccc2)c1=O)NCCc1ccncc1 [Example E-0049] |  |  | % Inhibition TF-VIIa (100 µM) [1]: 2%; % Inhibition Factor Xa (100 µM) [2]: 0% |
| N=C(N)c1ccc(CNC(=O)C(Cc2ccccc2)n2c(-c3ccccc3)c(Cl)nc(NC3CCC3)c2=O)cc1 (stereo not shown) [Example 1517-08] |  |  | % Inhibition TF-VIIa (30 µM) ([1]; at 30 µM inhibitor): 43%; % Inhibition Factor Xa (30 µM) ([2]; at 30 µM inhibitor): 0% |

Now from value to compound, other results behind:

| % Inhibition TF-VIIa (100 µM) ([1]; inhibitor at 100 µM) [%] | % Inhibition Factor Xa (100 µM) ([2]; inhibitor at 100 µM) [%] | Structure (SMILES) | also measured |
| --- | --- | --- | --- |
| 2 | 4 | O=C(Cn1c(-c2cccc(Cl)c2)c(Cl)nc(NCCc2ccc(Cl)cc2)c1=O)NCCc1cccnc1 [Example E-0095] |  |
| 1 | 4 | O=C(Cn1c(-c2cccc(Cl)c2)c(Cl)nc(NCCc2cccc(Cl)c2)c1=O)NCCc1ccncc1 [Example E-0091] |  |
| 0 | 1 | O=C(Cn1c(-c2ccc(Cl)cc2)c(Cl)nc(NCCc2ccc(Cl)cc2)c1=O)NCCc1ccncc1 [Example E-0020] |  |
| 0 | 0 | O=C(Cn1c(Cc2ccccc2)c(Cl)nc(NCCc2cccc(Cl)c2)c1=O)NCCc1ccncc1 [Example E-0059] |  |
| 0 | 0 | O=C(Cn1c(-c2ccc3c(c2)OCO3)c(Cl)nc(NCCc2ccc(Cl)cc2)c1=O)NCCc1ccncc1 [Example E-0044] |  |
| 1 | 0 | O=C(Cn1c(-c2ccc(Cl)cc2)c(Cl)nc(NCCc2ccccc2)c1=O)NCCc1ccncc1 [Example E-0018] |  |
| 0 | 6 | COc1ccc(-c2c(Cl)nc(NCCc3ccccc3)c(=O)n2CC(=O)NCCc2ccncc2)cc1 [Example E-0034] |  |
| 0 | 0 | O=C(Cn1c(-c2cccc(Cl)c2)c(Cl)nc(NCc2ccccc2)c1=O)NCCc1ccncc1 [Example E-0085] |  |
| 2 | 3 | O=C(Cn1c(-c2cccc(Cl)c2)c(Cl)nc(NCCc2ccc(Cl)cc2)c1=O)NCCc1cccnc1 [Example E-0083] |  |
| 0 | 4 | O=C(Cn1c(-c2cccc(Cl)c2)c(Cl)nc(NCCc2cccc(Cl)c2)c1=O)NCCc1ccncc1 [Example E-0079] |  |
| 0 | 0 | O=C(Cn1c(-c2ccccc2)c(Cl)nc(NCCc2cccnc2)c1=O)NCCc1ccncc1 [Example E-0013] |  |
| 0 | 0 | Cc1c(Cl)nc(NCCc2cccc(Cl)c2)c(=O)n1CC(=O)NCCc1ccncc1 [Example E-0003] |  |
| 0 | 0 | O=C(Cn1c(-c2ccc3c(c2)OCO3)c(Cl)nc(NCCc2ccccc2)c1=O)NCCc1ccncc1 [Example E-0042] |  |
| 2 | 2 | O=C(Cn1c(-c2cccc(Cl)c2)c(Cl)nc(NCCc2ccc(Cl)cc2)c1=O)NCCc1ccncc1 [Example E-0094] |  |
